Patent US10894817B2, “Fatty acid modified urocortin-2 analogs for the treatment of diabetes and chronic kidney disease” (priority 2016, dated 2021)
Values joined by “and” are separate entries in the source; they are usually repeats but may differ in a detail not shown here. Equal values may be shown once. Starred links: 1 amine or outer side, 2 acyl side, 3 side chain; linkers in the order of their positions; H or OH if unused. Non-standard residues stand in square brackets, D forms with d. Residues, ends and D or L forms follow the SMILES beside them. Groups on a side chain read outwards from the residue. *: point of attachment. C20 diacid = O=C(O)CCCCCCCCCCCCCCCCCCC(=O)*; C18 diacid = O=C(O)CCCCCCCCCCCCCCCCC(=O)*; γGlu = O=C(O)[C@H](CCC(=O)[*:2])N[*:1]; NMeI = CC[C@H](C)[C@H](NC)C(=O)O; AEEA = NCCOCCOCC(=O)O

Experiments:
[1] = molecular target: T1, human CRHR1 (Homo sapiens, UniProt P34998); test: human CRHR1 cell-based cAMP assay (Y79 cells); conditions: Y79 cells with endogenous human CRHR1, mean ± SEM of runs, read-out: hCRHR1 Average EC50
T1 construct: which expresses endogenous human CRHR1; host or cells: Y79 human retinoblastoma cells
T1 sequence (P34998 24-415): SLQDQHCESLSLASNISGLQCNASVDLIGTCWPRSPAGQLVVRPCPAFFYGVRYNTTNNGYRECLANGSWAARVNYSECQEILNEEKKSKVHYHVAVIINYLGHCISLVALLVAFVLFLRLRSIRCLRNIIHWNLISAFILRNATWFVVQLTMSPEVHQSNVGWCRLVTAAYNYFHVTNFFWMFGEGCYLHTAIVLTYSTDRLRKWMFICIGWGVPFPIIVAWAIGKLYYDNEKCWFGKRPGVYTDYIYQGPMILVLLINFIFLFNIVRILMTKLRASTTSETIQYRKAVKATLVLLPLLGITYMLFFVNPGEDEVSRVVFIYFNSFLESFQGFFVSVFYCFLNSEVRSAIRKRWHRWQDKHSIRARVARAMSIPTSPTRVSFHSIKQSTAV
Method: CRHR agonistic activity is measured in a cell-based cAMP assay. Serial dilutions of the test peptides are made in assay buffer containing Hank's Balanced Salt Solution (HBSS, without phenol red) supplemented with 20 mM HEPES and 0.05% lactalbumin enzymatic hydrolysate (LAH) (“assay buffer”). The highest concentration that is used starts from 1 μM in the human CRHR2b, whereas 100 μM starting concentration is used in the human CRHR1 assay. A one to three dilution of the test peptides is used in both assays.
The human Retinoblastoma cell line Y79 (ATCC #HTB-18), which expresses endogenous human CRHR1, is used in the human CRHR1 assay. The cells are grown in RPMI 1640 (Hyclone, #SH30255) containing 20% fetal bovine serum and 10 mM HEPES, in suspension culture. Cells are centrifuged to remove the culture media and washed once in HBSS supplemented with 20 mM HEPES. The cells are resuspended in the assay buffer and 20,000 cells are used per treatment in the human CRHR1 assay.
The cells are dispensed into Costar 96-well black polystyrene half area EIA/RIA plates (Corning Incorporated, Corning, N.Y.) followed by the addition of the diluted peptides, each at a volume of 20 μL. The agonist induced cAMP levels are detected using a HTRF cAMP Dynamic 2 kit (CisBio, Bedford, Mass.). After incubation at 37° C. for 30 min, the assay is stopped by cell lysis via the addition of 20 μL of d2-labeled cAMP and followed by 20 μL of cryptate-labeled anti-cAMP antibody, as described by the manufacturer. Cellular cAMP (as a result of agonist stimulation) competes with the d2-labeled cAMP for binding to the antibody. HTRF detection is performed on an Envision plate reader (Perkin Elmer Life and Analytical Sciences, Waltham, Mass.) by measuring ratiometric emission at 620 and 665 nm after excitation at 320 nm.
The data are converted to picomoles of cAMP using a standard curve obtained from the same assay performed with varying concentrations of unlabeled cAMP. Percent of the maximum activation of the cells is calculated using converted picomole cAMP data by comparing to the amount of cAMP produced by 1 μM human UCN2 for the human CRHR2b or 1 μM human UCN1 for the human CRHR1 assay. The data are analyzed using a Curve Fitting Tool to calculate ED50. Numeric values shown below in Table 1 represent the mean of multiple runs (number of runs shown in parentheses) following the mean value±SEM.

[2] = Pharmacokinetics, single subcutaneous dose, rats; conditions: for half-life: T1/2, male Sprague Dawley rats
Method: (§1) Plasma concentrations of compounds were determined by LC/MS methods. Each method measured the intact compound; peptide plus linked time extension. For each assay, the compound and an analog, used as an internal standard (IS), were extracted from 100% mouse, rat or monkey plasma (25 μl) using acetonitrile. Two distinct layers were formed upon centrifugation with the compound and the IS located in the supernatant layer. An aliquot of the supernatant (80 μl) was transferred to a Thermo Protein Precipitation Plate with water (150 μl) and formic acid (25 μl) followed by mixing. A final 31% acetonitrile in 10% formic acid sample (10 μl) was loaded onto a Supelco Analytical Discovery BIO Wide Pore C5-3 column (5 cm×1 mm, 3 μm). The column effluent was directed into a Thermo Q-Exactive mass spectrometer for detection and quantitation.
Male Sprague Dawley rats were administered a single subcutaneous dose (50 or 150 nmol/kg) of a compound described herein in 20 mM Tris-HCl Tris Buffer (pH 8) at a volume of 0.26 or 0.77 mL/kg.

[3] = Pharmacokinetics, single subcutaneous dose, mice; conditions: sc
Method: as §1
Male CD-1 mice were administered a single subcutaneous dose (350, 386 or 388 nmol/kg) of a compound described herein in 20 mM Tris-HCl Tris Buffer (pH 7 or 8) at a volume of 0.05 or 0.06 mL/animal. Blood was collected at 6, 12, 24, 48, 72, 96, 120 and 168 hours postdose for pharmacokinetic characterization (101).

[4] = Pharmacokinetics, single subcutaneous dose, monkeys; conditions: for half-life: T1/2, male Cynomolgus monkeys
Method: as §1
Male Cynomolgus monkeys were administered a single subcutaneous dose or intravenous dose (96.4 nmol/kg) of a compound described herein in 20 mM Tris-HCl Buffer (pH 7) at a volume of 1 mL/kg. Blood was collected from each animal at 2, 6, 24, 48, 72, 96, 168, 240, 336, 408, and 504 hours postdose for pharmacokinetic characterization.
Male Cynomolgus monkeys were also administered a single subcutaneous dose (50 nmol/kg) of a compound described herein in 20 mM Tris-HCl Buffer (pH 8) at a volume of 0.26 mL/kg. Blood was collected from each animal at 3, 6, 12, 24, 48, 72, 96, 120, 168, 192, 240, 336, 408, and 504 hours postdose for pharmacokinetic characterization.

[5] = male, Sprague Dawley, rat, plasma, sc, 150 nmol/kg
[6] = male, CD-1, mouse, plasma, 386 nmol/kg
[7] = male Cynomolgus monkeys, single 96.4 nmol/kg s.c., individual animal
[8] = male, cynomolgus monkey, plasma, sc, 96.4 nmol/kg
[9] = male Sprague Dawley rats, single 50 nmol/kg s.c., individual animal
[10] = male Sprague Dawley rats, single 150 nmol/kg s.c., individual animal
[11] = male, Sprague Dawley, rat, plasma, sc, 50 nmol/kg
[12] = male, CD-1, mouse, plasma, 350 nmol/kg
[13] = male Cynomolgus monkeys, single 50 nmol/kg s.c., individual animal
[14] = male, cynomolgus monkey, plasma, sc, 50 nmol/kg

CC[C@H](C)[C@H](NC(C)=O)C(=O)N[C@H](C(=O)N[C@@H](CC(C)C)C(=O)N[C@@H](CO)C(=O)N[C@@H](CC(C)C)C(=O)N[C@@H](CC(=O)O)C(=O)N[C@H](C(=O)N1CCC[C@H]1C(=O)N[C@H](C(=O)NCC(=O)N[C@@H](CC(C)C)C(=O)N[C@@H](CC(C)C)C(=O)N[C@@H](CCC(N)=O)C(=O)N[C@H](C(=O)N[C@@H](CC(C)C)C(=O)N[C@@H](CC(C)C)C(=O)N[C@@H](CCC(=O)O)C(=O)N[C@@H](CCC(N)=O)C(=O)N[C@@H](CCC(=O)O)C(=O)N[C@@H](CCCCN)C(=O)N[C@@H](CCC(N)=O)C(=O)N[C@@H](CCC(=O)O)C(=O)N[C@@H](CCCCN)C(=O)N[C@@H](CCC(=O)O)C(=O)N[C@@H](CCCCN)C(=O)N[C@@H](CCC(N)=O)C(=O)N[C@@H](CCC(N)=O)C(=O)N[C@@H](C)C(=O)N[C@@H](CCCCNC(=O)COCCOCCNC(=O)COCCOCCNC(=O)CC[C@H](NC(=O)CC[C@H](NC(=O)CCCCCCCCCCCCCCCCCCC(=O)O)C(=O)O)C(=O)O)C(=O)N[C@H](C(=O)N[C@@H](CC(N)=O)C(=O)N[C@@H](C)C(=O)N[C@@H](CCC(N)=O)C(=O)N[C@H](C(=O)N[C@@H](CC(C)C)C(=O)N[C@@H](C)C(=O)N[C@@H](CCC(N)=O)C(=O)N[C@H](C(N)=O)C(C)C)[C@@H](C)CC)[C@@H](C)O)[C@@H](C)CC)[C@@H](C)CC)C(C)C)C(C)C [Example 2] (Ac-IVLSLDVPIGLLQILLEQEKQEKEKQQAK([AEEA-AEEA-γGlu-γGlu-C20 diacid])TNAQILAQV-NH2)
EC50 [1]: > 10 µM
AUC(0-inf) [2, 5]: 32.3 µM·h
Cmax [2, 5]: 429 nM
Tmax ([2]; rat, in vivo, sc, 150 nmol/kg, male Sprague Dawley rats, single 150 nmol/kg s.c., Mean): 24 h
Tmax ([2]; rat, in vivo, sc, 150 nmol/kg, male Sprague Dawley rats, single 150 nmol/kg s.c., individual animal): 24 h
AUC(0-inf) [3, 6]: 46.5 µM·h
Cmax [3, 6]: 1150 nM
Tmax ([3]; mouse, in vivo, 386 nmol/kg): 12 h
Tmax ([4]; cynomolgus monkey, in vivo, sc, 96.4 nmol/kg, Tmax, male Cynomolgus monkeys, single 96.4 nmol/kg s.c., Mean): 36 h
Tmax ([4]; cynomolgus monkey, in vivo, sc, 96.4 nmol/kg, Tmax, male Cynomolgus monkeys, single 96.4 nmol/kg s.c., individual animal): 24 h
AUC(0-inf) [4, 7]: 237.954 µM·h and 245.711 µM·h
Cmax [4, 7]: 1238 nmol/L and 1699 nmol/L
Tmax [4, 7]: 48 h
AUC(0-inf) [4, 8]: 242 µM·h
Cmax [4, 8]: 1470 nmol/L

CC[C@H](C)[C@H](NC)C(=O)N[C@H](C(=O)N[C@@H](CC(C)C)C(=O)N[C@@H](CO)C(=O)N[C@@H](CC(C)C)C(=O)N[C@@H](CC(=O)O)C(=O)N[C@H](C(=O)N1CCC[C@H]1C(=O)N[C@H](C(=O)NCC(=O)N[C@@H](CC(C)C)C(=O)N[C@@H](CC(C)C)C(=O)N[C@@H](CCC(N)=O)C(=O)N[C@H](C(=O)N[C@@H](CC(C)C)C(=O)N[C@@H](CC(C)C)C(=O)N[C@@H](CCC(=O)O)C(=O)N[C@@H](CCC(N)=O)C(=O)N[C@@H](CCC(=O)O)C(=O)N[C@@H](CCCCN)C(=O)N[C@@H](CCC(N)=O)C(=O)N[C@@H](CCC(=O)O)C(=O)N[C@@H](CCCCN)C(=O)N[C@@H](CCC(=O)O)C(=O)N[C@@H](CCCCN)C(=O)N[C@@H](CCC(N)=O)C(=O)N[C@@H](CCC(N)=O)C(=O)N[C@@H](C)C(=O)N[C@@H](CCCCNC(=O)COCCOCCNC(=O)COCCOCCNC(=O)CC[C@H](NC(=O)CC[C@H](NC(=O)CCCCCCCCCCCCCCCCC(=O)O)C(=O)O)C(=O)O)C(=O)N[C@H](C(=O)N[C@@H](CC(N)=O)C(=O)N[C@@H](C)C(=O)N[C@@H](CCC(N)=O)C(=O)N[C@H](C(=O)N[C@@H](CC(C)C)C(=O)N[C@@H](C)C(=O)N[C@@H](CCC(N)=O)C(=O)N[C@H](C(N)=O)C(C)C)[C@@H](C)CC)[C@@H](C)O)[C@@H](C)CC)[C@@H](C)CC)C(C)C)C(C)C [Example 3] (H-[NMeI]VLSLDVPIGLLQILLEQEKQEKEKQQAK([AEEA-AEEA-γGlu-γGlu-C18 diacid])TNAQILAQV-NH2)
EC50 [1]: > 100 µM
CL/F [2, 9]: 0.125 mL/min/kg and 0.122 mL/min/kg
Cmax [2, 9]: 188 nM and 160 nM and 141 nM
T1/2 [2, 9]: 14 h and 17 h
CL/F [2, 10]: 0.103 mL/min/kg and 0.107 mL/min/kg
Cmax [2, 10]: 531 nM and 496 nM and 470 nM
AUC(0-inf) [2, 11]: 7.17 µM·h
Cmax [2, 11]: 163 nM
CL/F ([2]; male, Sprague Dawley, rat, plasma, sc, 50 nmol/kg, CL/F, male Sprague Dawley rats, single 50 nmol/kg s.c., Mean): 0.117 mL/min/kg
CL/F ([2]; male, Sprague Dawley, rat, plasma, sc, 50 nmol/kg, CL/F, male Sprague Dawley rats, single 50 nmol/kg s.c., individual animal): 0.103 mL/min/kg
half-life ([2]; male, Sprague Dawley, rat, plasma, sc, 50 nmol/kg, single 50 nmol/kg s.c., Mean): 960 min
half-life ([2]; male, Sprague Dawley, rat, plasma, sc, 50 nmol/kg, single 50 nmol/kg s.c., individual animal): 960 min
Tmax ([2]; male, Sprague Dawley, rat, plasma, sc, 50 nmol/kg, male Sprague Dawley rats, single 50 nmol/kg s.c., Mean): 20 h
Tmax ([2]; male, Sprague Dawley, rat, plasma, sc, 50 nmol/kg, male Sprague Dawley rats, single 50 nmol/kg s.c., individual animal): 12 h
AUC(0-inf) [2, 5]: 24.4 µM·h
Cmax [2, 5]: 499 nM
CL/F ([2]; male, Sprague Dawley, rat, plasma, sc, 150 nmol/kg, CL/F, male Sprague Dawley rats, single 150 nmol/kg s.c., Mean): 0.1 mL/min/kg
CL/F ([2]; male, Sprague Dawley, rat, plasma, sc, 150 nmol/kg, CL/F, male Sprague Dawley rats, single 150 nmol/kg s.c., individual animal): 0.1 mL/min/kg
half-life ([2]; male, Sprague Dawley, rat, plasma, sc, 150 nmol/kg, single 150 nmol/kg s.c., Mean): 960 min
half-life ([2]; male, Sprague Dawley, rat, plasma, sc, 150 nmol/kg, single 150 nmol/kg s.c., individual animal): 960 min
Tmax ([2]; male, Sprague Dawley, rat, plasma, sc, 150 nmol/kg, male Sprague Dawley rats, single 150 nmol/kg s.c., Mean): 24 h
Tmax ([2]; male, Sprague Dawley, rat, plasma, sc, 150 nmol/kg, male Sprague Dawley rats, single 150 nmol/kg s.c., individual animal): 24 h
AUC(0-inf) [3, 12]: 35.5 µM·h
CL/F [3, 12]: 0.165 mL/min/kg
Cmax [3, 12]: 1340 nM
Tmax [3, 12]: 12 h
half-life [3, 12]: 840 min
AUC(0-inf) [4, 13]: 69.88 µM·h and 58.414 µM·h
CL/F [4, 13]: 20.6 mL/day/kg
Cmax [4, 13]: 441 nmol/L and 432 nmol/L
T1/2 [4, 13]: 70 h
AUC(0-inf) [4, 14]: 64.1 µM·h
Cmax [4, 14]: 437 nmol/L
CL/F ([4]; male, cynomolgus monkey, plasma, sc, 50 nmol/kg, CL/F, male Cynomolgus monkeys, single 50 nmol/kg s.c., Mean): 19 mL/day/kg
CL/F ([4]; male, cynomolgus monkey, plasma, sc, 50 nmol/kg, CL/F, male Cynomolgus monkeys, single 50 nmol/kg s.c., individual animal): 17.3 mL/day/kg
half-life ([4]; male, cynomolgus monkey, plasma, sc, 50 nmol/kg, single 50 nmol/kg s.c., Mean): 3.54 days
half-life ([4]; male, cynomolgus monkey, plasma, sc, 50 nmol/kg, single 50 nmol/kg s.c., individual animal): 4.21 days
Tmax ([4]; male, cynomolgus monkey, plasma, sc, 50 nmol/kg, Tmax, male Cynomolgus monkeys, single 50 nmol/kg s.c., Mean): 36 h
Tmax ([4]; male, cynomolgus monkey, plasma, sc, 50 nmol/kg, Tmax, male Cynomolgus monkeys, single 50 nmol/kg s.c., individual animal): 48 h
